± gives the expanded uncertainty stated by the source.
Experiment: mn = molality of the nth substance listed, in mol/kg
Settings: 100 kPa, Liquid; for viscosity: Capillary tube (Ostwald / Ubbelohde) method; for speed of sound: Frequency=3 MHz, Sing-around technique in a fixed-path interferometer; for mass density: Vibrating tube method

C[C@H](CCC(=O)[O-])[C@H]1CC[C@H]2[C@@H]3CC[C@@H]4C[C@H](O)CC[C@]4(C)[C@H]3C[C@H](O)[C@]12C.[Na+] [sodium deoxycholate] + O
Settings | mass density, 293.15 K [kg/m3] | mass density, 298.15 K [kg/m3] | mass density, 303.15 K [kg/m3] | speed of sound, 293.15 K [m/s] | speed of sound, 298.15 K [m/s] | speed of sound, 303.15 K [m/s] | viscosity, 293.15 K [mPa·s] | viscosity, 298.15 K [mPa·s] | viscosity, 303.15 K [mPa·s]
m1 = 0.001 | 998.465 ± 0.14 | 997.29 ± 0.14 | 995.88 ± 0.14 | 1483.4 ± 1.4 | 1497.2 ± 1.3 | 1509.6 ± 1.3 | 1.003 ± 0.021 | 0.8914 ± 0.021 | 0.7987 ± 0.021
m1 = 0.002 | 998.579 ± 0.12 | 997.395 ± 0.12 | 995.983 ± 0.13 | 1483.8 ± 1.3 | 1497.5 ± 1.3 | 1509.9 ± 1.3 | 1.004 ± 0.021 | 0.8926 ± 0.021 | 0.7999 ± 0.021
m1 = 0.003 | 998.669 ± 0.12 | 997.475 ± 0.12 | 996.059 ± 0.13 | 1484.2 ± 1.3 | 1497.8 ± 1.3 | 1510 ± 1.3 | 1.006 ± 0.021 | 0.8937 ± 0.021 | 0.801 ± 0.021
m1 = 0.004 | 998.749 ± 0.12 | 997.555 ± 0.12 | 996.137 ± 0.13 | 1484.5 ± 1.3 | 1497.9 ± 1.3 | 1510.2 ± 1.3 | 1.009 ± 0.021 | 0.8967 ± 0.021 | 0.8039 ± 0.021
m1 = 0.005 | 998.815 ± 0.12 | 997.635 ± 0.12 | 996.215 ± 0.13 | 1484.6 ± 1.3 | 1498.1 ± 1.3 | 1510.5 ± 1.3 | 1.014 ± 0.022 | 0.9021 ± 0.021 | 0.8092 ± 0.021
m1 = 0.006 | 998.905 ± 0.12 | 997.715 ± 0.12 | 996.289 ± 0.13 | 1485 ± 1.3 | 1498.4 ± 1.3 | 1510.7 ± 1.3 | 1.027 ± 0.022 | 0.915 ± 0.022 | 0.822 ± 0.021
m1 = 0.007 | 998.995 ± 0.12 | 997.805 ± 0.13 | 996.377 ± 0.13 | 1485.2 ± 1.3 | 1498.7 ± 1.3 | 1511 ± 1.3 | 1.036 ± 0.021 | 0.924 ± 0.021 | 0.8309 ± 0.021
m1 = 0.009 | 999.185 ± 0.12 | 997.996 ± 0.12 | 996.557 ± 0.13 | 1485.5 ± 1.6 | 1499.2 ± 1.3 | 1511.3 ± 1.3 | 1.045 ± 0.022 | 0.9323 ± 0.021 | 0.8391 ± 0.021
m1 = 0.011 | 999.39 ± 0.12 | 998.185 ± 0.12 | 996.745 ± 0.13 | 1485.8 ± 1.3 | 1499.5 ± 1.3 | 1511.8 ± 1.3 | 1.049 ± 0.021 | 0.9368 ± 0.021 | 0.8434 ± 0.021
m1 = 0.013 | 999.585 ± 0.12 | 998.388 ± 0.12 | 996.921 ± 0.13 | 1486.2 ± 1.3 | 1499.9 ± 1.3 | 1512 ± 1.3 | 1.053 ± 0.021 | 0.941 ± 0.021 | 0.8476 ± 0.021
m1 = 0.015 | 999.795 ± 0.12 | 998.572 ± 0.12 | 997.109 ± 0.13 | 1486.5 ± 1.6 | 1500.2 ± 1.3 | 1512.3 ± 1.3 | 1.062 ± 0.022 | 0.9489 ± 0.021 | 0.8554 ± 0.021
m1 = 0.017 | 999.993 ± 0.12 | 998.772 ± 0.12 | 997.29 ± 0.13 | 1486.8 ± 1.3 | 1500.6 ± 1.3 | 1512.7 ± 1.3 | 1.069 ± 0.021 | 0.956 ± 0.021 | 0.8624 ± 0.021

From the NIST ThermoML archive (doi:10.1016/j.tca.2015.02.014)
